Experimental data: patent publication US12486303B2, “Use of peptide for inhibiting functions and expressions of multiple disease biomarkers” (NIBEC CO., LTD., priority 2018, dated 2025)

What was measured:
HDAC5 = experiment: Phospho explorer antibody microarray of LPS-treated RAW 264.7 cells: HDAC5; type: cell-based; settings: 200 μM peptide 1 hour then LPS 1 μg/mL 30 minutes, compared to cells treated with only LPS
Procedure: (§1) RAW 264.7 cells were starved in 0.5% FBS for 2 hours and treated with 200 μM of the peptide of SEQ ID NO: 1 for 1 hour, and then inflammation was induced at 37° C. for 30 minutes with LPS (1 μg/mL). Cell lysates of untreated cells (NT), cells treated with LPS, and cells treated with SEQ ID NO: 1 and LPS were applied to a Phospho explorer antibody microarray from Full Moon Biosystems. The phospho microarray is capable of recognizing 1318 antibodies related to 30 signaling systems. A standard-size coated glass microscope slide was coated with each antibody. =It was scanned with a GenePix 4100A scanner (Axon Instrument, Foster City, CA, USA). Data were analyzed with Genowiz 4.0™ (Ocimum Biosolutions, Hyderabad, India). The phosphorylation ratio was calculated as follows.
(§2) Formula for calculating phosphorylation ratio in each antibody: Phosphorylation ratio=(phosphorylation value of experimental group/non-phosphorylation value of experimental group)/(phosphorylation value of control group/non-phosphorylation value of control group)

[1] = test system: high-fat diet C57BL/6 mice; experiment: Non-alcoholic hepatitis animal model induced by high-fat diet; type: in vivo; settings: 7 weeks, peptide 15 or 30 mg/kg
From the text: In order to determine whether or not the peptide according to the present invention has the effect of treating hepatitis and inhibiting obesity in vivo, a non-alcoholic hepatitis animal model induced by a high-fat diet was used. Male C57BL/6 mice (7 weeks old) were acclimated for 1 week and a total of 20 animals were divided into four experimental groups (n=5 per group), namely, a normal diet group (control), a high-fat diet group (DIO: HFD-induced obesity), a group injected with a low dose of the peptide of SEQ ID NO: 1 (LD SEQ ID NO: 1, 15 mg/kg) and a group injected with a high dose of the peptide of SEQ ID NO: 1 (HD SEQ ID NO: 1, 30 mg/kg), and were reared with the high-fat diet or the normal diet for 7 weeks. The high-fat diet was a 60% high-fat diet (Dyets, Inc). During 7 weeks of rearing, body weight and feed intake were measured twice a week. On the 50th day after 7 weeks of rearing, the animals were sacrificed, and liver and adipose tissues were collected and sized.

NF-κB p105/p50 = experiment: Phospho explorer antibody microarray of LPS-treated RAW 264.7 cells: NF-κB p105/p50; type: cell-based; settings: 200 μM peptide 1 hour then LPS 1 μg/mL 30 minutes, compared to cells treated with only LPS
Procedure: as §1, §2

[2] = test system: collagen-induced arthritis (CIA) rats; experiment: Collagen-induced arthritis animal model; type: in vivo, Wistar rats; settings: for Hind paw swelling inhibition (%): 38th day
From the text: In order to determine whether or not the peptide according to the present invention is effective in treating rheumatoid arthritis in vivo, the effect of treating arthritis thereof was detected in a collagen-induced arthritis animal model. For this purpose, female Wistar rats (105-135 g, n=67) were purchased from Harlan Co. Ltd. (Indianapolis, IN, USA). All rats were bred in a pathogen-free environment and sterilized standard rat feed (Harlan Co. Ltd, USA) and water were freely fed to the rats. Animal experiments were conducted with the approval of the Institutional Animal Care and Use Committee (IACUC) of Seoul National University. Collagen-induced arthritis was induced in a known manner (Nishikawa et al., Arthritis and rheumatism. 2003; 48:2670-81).
Specifically, 500 μg of bovine collagen type II was injected along with a mixture of 0.5 mL of 0.1 M acetic acid and 0.5 mL of Freund's incomplete adjuvant into rat muscle. On the 7th day, 0.5 mL of 0.1 M acetic acid and 0.5 mL of Freund's incomplete adjuvant were further inoculated along with 250 μg of bovine collagen type II to produce collagen-induced arthritis (CIA) rats. The rats were classified into a CIA-induced group (n=10), a CIA-induced group injected with a low concentration of the peptide of SEQ ID NO: 1 (LD AIP, 15 mg/kg, n=10), a CIA-induced group injected with a high concentration of the peptide of SEQ ID NO: 1 (HD AIP, 30 mg/kg, n=10), a CIA-induced group injected with etanercept (Enbrel) (10 mg/kg, n=10), and a normal group (n=6). From 28 days after the first collagen injection, the peptide of SEQ ID NO: 1 was injected subcutaneously into the back of the neck twice a week over 4 weeks. Etanercept was injected intraperitoneally three times a week over 4 weeks. Swelling of both hind paws was measured twice using a plethysmometer (LE7500 N, IWOO Scientific Corporation, KOREA) on day 22, 29, 31, 35, 38, 42, 45, 49, 52, and 56. The plethysmometer was used after calibration to a weight of 3 mL. The measured area was marked by drawing a line, and measurement was conducted adjacent to the ankle. Hind paw swelling increase (%) and hind paw swelling inhibition (%) were calculated using the following equations.
In order to observe the degree of bone damage in the hind paw, microcomputed tomography (micro-CT) was performed using a SkyScan 1172 (SkyScan, Aartselaar, Belgium). The total volume (TV; mm^3), bone volume (BV; mm^3) and bone volume fraction (BV/TV; %) were analyzed using CTAn software. On the 57th day, rats were sacrificed and subjected to histological analysis. Both hind paws and joints were collected, fixed in 10% buffered formalin, and demineralized in 30% citrate-buffered formic acid at 4° ° C. for 3 days. Paraffin blocks were produced, sliced into sections with a thickness of 4 μm and stained with hematoxylin and eosin (H&E), and then the pathological score was evaluated with an optical microscope. The joint inflammation index was measured based on the following criteria (Shiozawa et al., J Clin Invest. 1997; 99 (6):1210-1216). 0, normal synovium; 1, synovial membrane hypertrophy and cell infiltrates; 2, pannus and cartilage erosion; 3, major erosion of cartilage and subchondral bone; and 4, loss of joint integrity and ankylosis.
The rats were sacrificed and systemic blood was collected, and the concentrations of TNF-α and IL-6 in the blood were measured with an ELISA kit (R&D, Minneapolis, MN, USA).

NF-κB p100/p52 = experiment: Phospho explorer antibody microarray of LPS-treated RAW 264.7 cells: NF-κB p100/p52; type: cell-based; settings: 200 μM peptide 1 hour then LPS 1 μg/mL 30 minutes, compared to cells treated with only LPS
Procedure: as §1, §2

IκBα = experiment: Phospho explorer antibody microarray of LPS-treated RAW 264.7 cells: IκBα; type: cell-based; settings: 200 μM peptide 1 hour then LPS 1 μg/mL 30 minutes, compared to cells treated with only LPS
Procedure: as §1, §2

Q: What does the source list for `C[C@@H](O)[C@H](NC(=O)[C@H](CO)NC(=O)[C@H](CS)NC(=O)[C@H](CCCCN)NC(=O)CN)C(=O)N[C@@H](CCCNC(=N)N)C(=O)NCC(=O)N[C@@H](CCCNC(=N)N)C(=O)N[C@@H](CCCCN)C(=O)N[C@@H](CS)C(=O)N[C@@H](CS)C(=O)N[C@@H](CCCNC(=N)N)C(=O)N[C@@H](CCCNC(=N)N)C(=O)N[C@@H](CCCCN)C(=O)N[C@@H](CCCCN)C(=O)O` [SEQ ID NO: 1]?
A: Phosphorylation ratio of HDAC5 (HDAC5): 0.278; Size of subcutaneous fat [1]: decreased; Size of the liver [1]: decreased; Phosphorylation ratio of NF-κB p105/p50 (NF-κB p105/p50): 0.485; Concentration of IL-6 in blood ([2]; ELISA, high concentration of peptide or etanercept, CIA-induced group 109 pg/ml): 35.2 pg/mL; Concentration of TNF-α in blood ([2]; ELISA, high concentration of peptide or etanercept, CIA-induced group 128 pg/ml): 40.3 pg/mL; Bone damage in hind paw (micro-CT) ([2]; FIG. 3A): bone tissue was preserved; Microscopic observation of joint tissues (inflammation, H&E) ([2]; FIG. 4A): decrease in inflammation in a concentration-dependent manner; Hind paw swelling inhibition (%) ([2]; high concentration (30 mg/kg)): 35%; Bone surface area adjusted to BV (BS/BV) ([2]; high concentration, micro-CT): low; Bone volume (BV) ([2]; high concentration, micro-CT): high; Bone volume/tissue volume (BV/TV) ([2]; high concentration, micro-CT): high; Trabecular thickness (Tb.Th) ([2]; high concentration, micro-CT): high; Hind paw swelling inhibition (%) ([2]; low concentration (15 mg/kg)): 32%; Hind paw swelling (%) ([2]; peptide 15 or 30 mg/kg subcutaneously twice a week, etanercept 10 mg/kg intraperitoneally three times a week, 4 weeks): decrease in hind paw swelling (%) in a concentration-dependent manner; Hind paw swelling (%) ([2]; peptide at high concentration (30 mg/kg)): decrease in hind paw swelling (%) between 38 and 49 days (P<0.05); Inflammation index ([2]; score 0-4, CIA-induced group 3.3±0.67): 1.5±1.17; Phosphorylation ratio of NF-κB p100/p52 (NF-κB p100/p52): 0.451; Phosphorylation ratio of IκBα (IκBα): 0.509
